Data as given in US11572399B2, “Long-acting GIP peptide analogues” (University of Copenhagen, priority 2017, dated 2023).
pIC50: −log10 of the molar value. Peptide text beside a SMILES is read from it. * marks the point of attachment. C16 diacid = O=C(O)CCCCCCCCCCCCCCC(=O)*; Palmitoyl = CCCCCCCCCCCCCCCC(=O)*

Tests used:
human GIP receptor [1] = molecular target: T1, human GIP receptor (Homo sapiens, UniProt P48546); test: cAMP accumulation assay, antagonism of a GIP-mediated cAMP response (50-80% of max); format: cell-based; details: for Fold change of IC50 versus GIP(5-30)NH2: fold change of IC50 from GIP(5-30)NH2; for cAMP - antagonisme fold (paired): fold vs GIP(3-30)NH2; for IC50: transiently transfected COS-7 cells
T1 construct: host or cells: COS-7, transient transfection (calcium phosphate), cDNA in pCMV-Script
T1 sequence (P48546 22-466): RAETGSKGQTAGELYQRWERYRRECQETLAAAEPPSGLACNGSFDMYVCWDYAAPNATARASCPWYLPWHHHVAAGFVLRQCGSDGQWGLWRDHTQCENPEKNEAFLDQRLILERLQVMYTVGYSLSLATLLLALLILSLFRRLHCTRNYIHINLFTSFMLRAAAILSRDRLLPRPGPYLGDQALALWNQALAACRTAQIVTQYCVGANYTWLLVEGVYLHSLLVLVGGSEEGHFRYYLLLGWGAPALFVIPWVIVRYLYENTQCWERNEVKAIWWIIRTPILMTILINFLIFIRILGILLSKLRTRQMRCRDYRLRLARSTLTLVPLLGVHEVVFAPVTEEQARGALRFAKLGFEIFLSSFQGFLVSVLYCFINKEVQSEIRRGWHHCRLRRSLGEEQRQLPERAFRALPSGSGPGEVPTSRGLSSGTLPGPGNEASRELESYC
Experimental: The day after, the cells were washed twice with Hepes buffered saline (HBS) buffer and incubated with HBS and 1 mM 3-isobutyl-1-methylxanthine (IBMX) for 30 min at 37° C. […] The HitHunter™ cAMP XS assay (DiscoveRx) was carried out according to the manufacturer's instructions.

human GIP receptor [2] = molecular target: T1, human GIP receptor; test: 125I-human GIP competition binding assay, in the presence and absence of 2% HSA; details: for Fold change HSA (2%)/Casein (0.1%): IC50 (plus HSA)/IC50 (minus HSA); for Binding (+/−HSA) Fold: fold change +HSA/−HSA; for Fold change in affinity, IC50 (plus HSA)/IC50 (minus HSA): presence vs absence of 2% HSA, proxy for albumin binding; for Binding fold (paired): fold decrease in affinity compared to GIP(3-30)NH2;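 as to all read-outs here: nonspecific binding taken as radioligand bound to untransfected cells, IC50 obtained from nonlinear regression fits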
Experimental: Transient transfection of the COS-7 cells for cAMP accumulation and competition binding was performed using the calcium phosphate precipitation method with the addition of chloroquine^46-47.
Transient transfected COS-7 cells expressing the human GIP receptor were seeded in clear 96-well plates the day after transfection using a number of cells/well that obtained 5-10% specific binding of the added radioactive ligand. The following day, cells were assayed by competition binding for 3 h at 4° C. using 15-40 pM 125 I-human GIP as well as increasing concentrations unlabeled ligand in 50 mM Hepes buffer (pH 7.2) in the presence and absence of 2% HSA. After incubation, the cells were washed twice in ice-cold binding buffer (+/−2% HSA) and lysed using 200 mM NaOH with 1% SDS for 30 min. Nonspecific binding was determined as the binding of radioactive ligand to untransfected cells.
IC50, EC50, and Ki values were determined by nonlinear regression. […] Ki values were based on the formula for one class of binding sites in homologous competition binding studies and the Cheng Prussoffs formula, respectively (DeBlasi et al., 1989). To determine the HSA binding potential, the fold change in affinity (as determined by IC50) was calculated as IC50 (plus HSA)/IC50 (minus HSA).

[3] = Elimination half-life (T1/2) estimated in pigs, subcutaneous, RIA; format: in vivo; details: pig; for half-life: plasma, sc, pigs, subcutaneous 1-10 nmol/kg; for T½: subcutaneous
Experimental: LYH/LYD strain pigs or mini-pigs were housed in the animal facility at the Faculty of Health and Medical Sciences.
A pig was subcutaneously administered one of the lipidated GIP(3-30)NH2 analogs (compound AT117) (1-10 nmol/kg, total volume 2-6 mL) after which 10-18 blood samples were collected before and up to 57 hours post subcutaneous administration) from a central venous catheter. The catheter was flushed with saline and heparin between samples. Blood was collected into cold EDTA tubes, centrifuged and plasma was kept at −20° C. pending analyses. When experiments are completed, the animals will be killed.
Concentrations of the lipidated GIP(3-30)NH2 or GIP(5-30)NH2 analogues in blood samples from pigs were analysed by RIA. Analogues' immunoreactivity was determined using antiserum Ab95234, Ab95235, Ab95236, a polyclonal in-house antibody raised in rabbits specific for either the mid region of GIP(1-30)NH2 or amidated C-terminus of GIP(3-30)NH2.

human GIP receptor [4] = molecular target: T1, human GIP receptor; test: cAMP accumulation assay, agonism (ligand alone); format: cell-based; details: COS-7 cells, Table 1; for Emax: COS-7, intrinsic cAMP activity; for EC50: read-out: cAMP agonism nM (EC50)
[5] = binding in 0.1% casein (absence of HSA), log value, read-out: logIC50 0.1% casein (converted)
[6] = binding in presence of 2% HSA, read-out: logIC50 2% HSA (converted)
[7] = Table 1 and text, read-out: cAMP antagonism nM (IC50, antagonistic potency)
[8] = 0.1% casein, no HSA, Table 3b, read-out: Binding logIC50 0.1% casein (converted)
[9] = Table 3b, initial data, read-out: Binding IC50
[10] = heterologous competition binding, transiently transfected COS-7 cells expressing the human GIP receptor, read-out: Binding

| SMILES | Ability to antagonize the GIP-mediated cAMP response (in words) (human GIP receptor [1]) | Fold change of IC50 versus GIP(5-30)NH2 (human GIP receptor [1]) | Fold change HSA (2%)/Casein (0.1%) (human GIP receptor [2]) | IC50 (human GIP receptor [2]; [5]) | IC50 (human GIP receptor [2]; [6]) | Binding (+/−HSA) Fold (human GIP receptor [2]) | Fold change in affinity, IC50 (plus HSA)/IC50 (minus HSA) (human GIP receptor [2]) | half-life [3] | T½ [3] | Emax (human GIP receptor [4]) | cAMP - antagonisme fold (paired) (human GIP receptor [1]; Table 3b) | IC50 (human GIP receptor [1]; [7]) | IC50 (human GIP receptor [2]; [8]) | pIC50 (human GIP receptor [2]; [9]) | Binding fold (paired) (human GIP receptor [2]; Table 3b) | pIC50 (human GIP receptor [2]; [10]) | EC50 (human GIP receptor [4]) | further results |
| --- | --- | --- | --- | --- | --- | --- | --- | --- | --- | --- | --- | --- | --- | --- | --- | --- | --- | --- |
| CC[C@H](C)[C@H](NC(=O)[C@H](CCCCN)NC(=O)[C@H](CC(=O)O)NC(=O)[C@H](CCSC)NC(=O)[C@H](CCCCNC(=O)CCCCCCCCCCCCCCC(=O)O)NC(=O)[C@@H](NC(=O)[C@H](CO)NC(=O)[C@H](Cc1ccc(O)cc1)NC(=O)[C@H](CC(=O)O)NC(=O)[C@H](CO)NC(=O)[C@@H](NC(=O)[C@H](Cc1ccccc1)NC(=O)[C@@H](N)[C@@H](C)O)[C@@H](C)CC)[C@@H](C)CC)C(=O)N[C@@H](Cc1c[nH]cn1)C(=O)N[C@@H](CCC(N)=O)C(=O)N[C@@H](CCC(N)=O)C(=O)N[C@@H](CC(=O)O)C(=O)N[C@@H](Cc1ccccc1)C(=O)N[C@H](C(=O)N[C@@H](CC(N)=O)C(=O)N[C@@H](Cc1c[nH]c2ccccc12)C(=O)N[C@@H](CC(C)C)C(=O)N[C@@H](CC(C)C)C(=O)N[C@@H](C)C(=O)N[C@@H](CCC(N)=O)C(=O)N[C@@H](CCCCN)C(N)=O)C(C)C [AT175, [hGIP(5-30)NH2[A13K]-C16diacid/13]] (H-TFISDYSIK(C16 diacid)MDKIHQQDFVNWLLAQK-NH2; N-terminus assumed) | highest antagonistic potencies | 0.5 | 7.8 | 79.4 nM | 562 nM | 9.4 | 7.8 fold | 360 min | 6 h | 0% | – | – | – | – | – | – | – | Ki (human GIP receptor [2]; absence of HSA): 53 nM |
| CC[C@H](C)[C@H](NC(=O)[C@H](CO)NC(=O)[C@H](Cc1ccc(O)cc1)NC(=O)[C@H](CC(=O)O)NC(=O)[C@H](CO)NC(=O)[C@@H](NC(=O)[C@H](Cc1ccccc1)NC(=O)[C@@H](NC(=O)CNC(=O)[C@@H](N)CCC(=O)O)[C@@H](C)O)[C@@H](C)CC)C(=O)N[C@@H](C)C(=O)N[C@@H](CCSC)C(=O)N[C@@H](CC(=O)O)C(=O)N[C@@H](CCCNC(=N)N)C(=O)N[C@H](C(=O)N[C@@H](CCCCNC(=O)CCCCCCCCCCCCCCC(=O)O)C(=O)N[C@@H](CCC(N)=O)C(=O)N[C@@H](CCC(N)=O)C(=O)N[C@@H](CC(=O)O)C(=O)N[C@@H](Cc1ccccc1)C(=O)N[C@H](C(=O)N[C@@H](CC(N)=O)C(=O)N[C@@H](Cc1c[nH]c2ccccc12)C(=O)N[C@@H](CC(C)C)C(=O)N[C@@H](CC(C)C)C(=O)N[C@@H](C)C(=O)N[C@@H](CCC(N)=O)C(=O)N[C@@H](CCCNC(=N)N)C(N)=O)C(C)C)[C@@H](C)CC [AT159, [hGIP(3-30)NH2[K16R; H18K; K30R]-C16diacid/18]] (H-EGTFISDYSIAMDRIK(C16 diacid)QQDFVNWLLAQR-NH2; N-terminus assumed) | – | – | – | – | – | – | 0.8 fold | 360 min | – | 6% | 0.1 fold | 6 nM | 25 nM | 7.60 | 3 fold | 7.74 | 2 nM | – |
| CC[C@H](C)[C@H](NC(=O)[C@H](CO)NC(=O)[C@H](Cc1ccc(O)cc1)NC(=O)[C@H](CC(=O)O)NC(=O)[C@H](CO)NC(=O)[C@@H](NC(=O)[C@H](Cc1ccccc1)NC(=O)[C@@H](NC(=O)CCCCCCCCCCCCCCC(=O)O)[C@@H](C)O)[C@@H](C)CC)C(=O)N[C@@H](C)C(=O)N[C@@H](CCSC)C(=O)N[C@@H](CC(=O)O)C(=O)N[C@@H](CCCCN)C(=O)N[C@H](C(=O)N[C@@H](Cc1c[nH]cn1)C(=O)N[C@@H](CCC(N)=O)C(=O)N[C@@H](CCC(N)=O)C(=O)N[C@@H](CC(=O)O)C(=O)N[C@@H](Cc1ccccc1)C(=O)N[C@H](C(=O)N[C@@H](CC(N)=O)C(=O)N[C@@H](Cc1c[nH]c2ccccc12)C(=O)N[C@@H](CC(C)C)C(=O)N[C@@H](CC(C)C)C(=O)N[C@@H](C)C(=O)N[C@@H](CCC(N)=O)C(=O)N[C@@H](CCCCN)C(N)=O)C(C)C)[C@@H](C)CC [AT137, [hGIP(5-30)NH2—C16diacid/5]] | high potent antagonists | 3.7 | 1.9 | 316 nM | – | 2.0 | – | – | – | 12% | – | 182 nM | – | – | – | 6.54 | 18 nM | pIC50 (human GIP receptor [1]; antagonism of GIP-mediated cAMP response, COS-7 cells, read-out: cAMP accumulation IC50): 6.99; Affinity compared to GIP(3-30)NH2 (in words) (human GIP receptor [2]): affinities in the same range as GIP(3-30)NH2; Ki (human GIP receptor [2]; presence of 2% HSA): 117 nM |
| CCCCCCCCCCCCCCCC(=O)NCCCC[C@H](NC(=O)[C@@H](NC(=O)[C@H](CCCCN)NC(=O)[C@H](CC(=O)O)NC(=O)[C@H](CCSC)NC(=O)[C@H](C)NC(=O)[C@@H](NC(=O)[C@H](CO)NC(=O)[C@H](Cc1ccc(O)cc1)NC(=O)[C@H](CC(=O)O)NC(=O)[C@H](CO)NC(=O)[C@@H](NC(=O)[C@H](Cc1ccccc1)NC(=O)[C@@H](NC(=O)CNC(=O)[C@@H](N)CCC(=O)O)[C@@H](C)O)[C@@H](C)CC)[C@@H](C)CC)[C@@H](C)CC)C(=O)N[C@@H](CCC(N)=O)C(=O)N[C@@H](CCC(N)=O)C(=O)N[C@@H](CC(=O)O)C(=O)N[C@@H](Cc1ccccc1)C(=O)N[C@H](C(=O)N[C@@H](CC(N)=O)C(=O)N[C@@H](Cc1c[nH]c2ccccc12)C(=O)N[C@@H](CC(C)C)C(=O)N[C@@H](CC(C)C)C(=O)N[C@@H](C)C(=O)N[C@@H](CCC(N)=O)C(=O)N[C@@H](CCCCN)C(N)=O)C(C)C [AT117, [hGIP(3-30)NH2[H18K]-C16/18]] (H-EGTFISDYSIAMDKIK(Palmitoyl)QQDFVNWLLAQK-NH2; N-terminus assumed) | – | – | – | – | 1730 nM | – | 15.7 fold | 480 min | 8 h | 0% | 2.3 fold | 15 nM | 110 nM | 6.53 | 12 fold | 6.53 | – | IC50 (human GIP receptor [2]; 2% HSA, Table 3b, read-out: Binding logIC50 2% HSA (converted)): 1730 nM |
| CCCCCCCCCCCCCCCC(=O)NCCCC[C@H](NC(=O)[C@H](CCC(=O)O)NC(=O)[C@H](CCSC)NC(=O)[C@H](C)NC(=O)[C@@H](NC(=O)[C@H](CO)NC(=O)[C@H](Cc1ccc(O)cc1)NC(=O)[C@H](CC(=O)O)NC(=O)[C@H](CO)NC(=O)[C@@H](NC(=O)[C@H](Cc1ccccc1)NC(=O)[C@@H](NC(=O)CNC(=O)[C@@H](N)CCC(=O)O)[C@@H](C)O)[C@@H](C)CC)[C@@H](C)CC)C(=O)N[C@H](C(=O)N[C@@H](C)C(=O)N[C@@H](CCC(N)=O)C(=O)N[C@@H](CCC(N)=O)C(=O)N[C@@H](CC(=O)O)C(=O)N[C@@H](Cc1ccccc1)C(=O)N[C@H](C(=O)N[C@@H](CC(N)=O)C(=O)N[C@@H](Cc1c[nH]c2ccccc12)C(=O)N[C@@H](CC(C)C)C(=O)N[C@@H](CC(C)C)C(=O)N[C@@H](C)C(=O)N[C@@H](CCC(N)=O)C(=O)N[C@@H](CCCCN)C(N)=O)C(C)C)[C@@H](C)CC [AT131, [hGIP(3-30)NH2[D15E; H18A]-C16/16]] (H-EGTFISDYSIAMEK(Palmitoyl)IAQQDFVNWLLAQK-NH2; N-terminus assumed) | – | – | – | – | – | – | – | – | – | 35% | 1.1 fold | – | – | 5.19 | 49 fold | 5.19 | – | pIC50 (human GIP receptor [1]; Table 3b, initial data, read-out: cAMP - antagonisme IC50): 7.19; IC50 (human GIP receptor [1]; given as log IC50 (negative sign), Table 1, read-out: cAMP antagonism log (converted)): 39.8 nM |
